Here are results for six molecules from patent US10968225B2, “Compounds and compositions for the treatment of cystic fibrosis” (Fondazione Istituto Italiano Di Tecnologia, priority 2017, dated 2021).

Format in all cases: cell-based
Assay [1] deals with T1, F508del-CFTR (Homo sapiens, UniProt P13569, DEL508-508). In words: Transepithelial electrical conductance (TEEC) in FRT cells. Also noted: expressed in transfected cells; host or cells: FRT cells. The settings on record: compounds tested at 5.0 µM; FRT cells expressing F508del-CFTR; 24 hrs incubation; forskolin and genistein stimulation minus PPQ-102 block. Here is the method: Transepithelial Electrical Conductance (TEEC)
FRT cells expressing F508del-CFTR were plated on HTS Transwell-24 well permeable supports (Code 3379, Corning Life Sciences) at a density of 200,000 cells/well. After six days, cells were incubated for 24 hrs with test correctors, vehicle, or VX-809. Compounds were dissolved in both basolateral (800 μL) and apical (300 μL) culture medium. After treatment, the culture medium was removed and replaced on both sides with a saline solution containing (in mM): 130 NaCl, 2.7 KCl, 1.5 KH2PO4, 1 CaCl2, 0.5 MgCl2, 10 glucose, 10 Na-Hepes (pH 7.4). The basolateral and apical side received 800 μL and 100 μL, respectively. The 24-well tray with cells was placed on a block heater (SBH 130D, Stuart) to keep the temperature at 37° C. during the entire experiment. After 10 min, the basal transepithelial electrical resistance (TEER) across each layer of FRT cells was measured with a STX100C electrode pair connected to an EVOM2 voltohmeter (World Precision Instruments). To stimulate F508del-CFTR, each well received (apical side) 50 μL of saline solution containing 60 μM forskolin and 150 μM genistein (final concentrations: 20 μM forskolin, 50 μM genistein). Forskolin was also pipetted in the basolateral medium to obtain the 20 μM concentration. After 10 min TEER was measured again in each well. To block F508del-CFTR function, the inhibitor PPQ-102 was used at the final concentration of 30 μM. To achieve the desired concentration, 75 μL of the apical solution in each well was replaced with an equal volume of saline solution containing 20 μM forskolin, 50 μM genistein, and 60 μM PPQ-102. After further 10 min, the transepithelial electrical resistance was measured. All values of TEER were converted to transepithelial electrical conductance (TEEC) using the formula TEEC=1/TEER. The parameter to indicate activity of F508del-CFTR in each well (ΔTEEC) was calculated from the difference in TEEC measured after maximal stimulation of F508del-CFTR with forskolin and genistein and after block with PPQ-102.
Corrector activities obtained on selected compounds tested at 5.0 µM (expressed as ΔTEEC values) are illustrated in table 2, wherein +: ΔTEEC<2000 µS; ++: 2000 µS<ΔTEEC<3000[…]S; +++: ΔTEEC>3000 µS.

For assay [2], the target named is T1, F508del-CFTR. The assay can be described thus: Short-circuit current recordings on human bronchial epithelial cells. Also noted: Human bronchial epithelial (HBE) cells obtained from CF patients (F508del/F508del genotype); endogenous in cells; host or cells: primary human bronchial epithelial cells from CF patients, F508del/F508del. The settings on record: compounds tested at 1.0 µM; HBE cells from CF patients (F508del/F508del); 24 hrs treatment; CPT-cAMP plus VX-770 minus CFTRinh-172. Here is the method:
Short-Circuit Current Recordings on Human Bronchial Epithelial Cells
Human bronchial epithelial (HBE) cells obtained from CF patients (F508del/F508del genotype) were plated on Snapwell inserts (Code 3801, Corning Life Sciences) at a density of 500,000 cells per insert. Cells were cultured for two weeks in a differentiating medium whose compositions has been previously described (Scudieri et al., J Physiol 590:6141-6155, 2012). For the first week, the medium was kept on both apical and basolateral sides of inserts (submerged condition). For the second week, the apical medium was removed (air-liquid condition, ALC). To test the activity of correctors, cells were treated for 24 hrs with compounds dissolved in the basolateral medium. After treatment, Snapwell inserts carrying differentiated bronchial epithelia were mounted in a vertical chamber resembling an Ussing system with internal fluid circulation. Both apical and basolateral hemichambers were filled with 5 mL of a Krebs bicarbonate solution containing (in mM): 126 NaCl, 0.38 KH2PO4, 2.13 K2HPO4, 1 MgSO4, 1 CaCl2, 24 NaHCO3, and 10 glucose. Both sides were continuously bubbled with a gas mixture containing 5% CO2-95% air and the temperature of the solution was kept at 37° C. The transepithelial voltage was short-circuited with a voltage-clamp (DVC-1000, World Precision Instruments) connected to the apical and basolateral chambers via Ag/AgCl electrodes and agar bridges (1 M KCl in 1% agar). The offset between voltage electrodes and the fluid resistance were canceled before experiments. The short-circuit current was recorded with a PowerLab 4/25 (ADInstruments) analogical to digital converter connected to a Macintosh computer. […] The difference between the current measured with CPT-cAMP plus potentiator and the current remaining after CFTRinh-172 treatment ([…]ICFTR) was taken as the parameter reflecting F508del-CFTR expression in the apical membrane.
Activities of selected compounds on HBE cells tested at 1.0 µM (expressed as […]ICFTR) are illustrated in table 3 wherein +: […]ICFTR<2.0 µA; ++: 2 μA<[…]ICFTR<3.0 μA; +++: […]ICFTR>3.0 µA.

In a further assay the target is T2, mutant CFTR (Homo sapiens, UniProt P13569, DEL508-508).
T2 construct: expressed in transfected cells
In words: Fluorescence (HS-YFP) assay for CFTR activity, corrector assay. The settings on record: CFBE41o- and FRT cells with stable expression of mutant CFTR, read-out: activity (EC50).

Structures are written as SMILES.

T1 sequence (P13569 with tags, fused parts or gaps DEL508-508): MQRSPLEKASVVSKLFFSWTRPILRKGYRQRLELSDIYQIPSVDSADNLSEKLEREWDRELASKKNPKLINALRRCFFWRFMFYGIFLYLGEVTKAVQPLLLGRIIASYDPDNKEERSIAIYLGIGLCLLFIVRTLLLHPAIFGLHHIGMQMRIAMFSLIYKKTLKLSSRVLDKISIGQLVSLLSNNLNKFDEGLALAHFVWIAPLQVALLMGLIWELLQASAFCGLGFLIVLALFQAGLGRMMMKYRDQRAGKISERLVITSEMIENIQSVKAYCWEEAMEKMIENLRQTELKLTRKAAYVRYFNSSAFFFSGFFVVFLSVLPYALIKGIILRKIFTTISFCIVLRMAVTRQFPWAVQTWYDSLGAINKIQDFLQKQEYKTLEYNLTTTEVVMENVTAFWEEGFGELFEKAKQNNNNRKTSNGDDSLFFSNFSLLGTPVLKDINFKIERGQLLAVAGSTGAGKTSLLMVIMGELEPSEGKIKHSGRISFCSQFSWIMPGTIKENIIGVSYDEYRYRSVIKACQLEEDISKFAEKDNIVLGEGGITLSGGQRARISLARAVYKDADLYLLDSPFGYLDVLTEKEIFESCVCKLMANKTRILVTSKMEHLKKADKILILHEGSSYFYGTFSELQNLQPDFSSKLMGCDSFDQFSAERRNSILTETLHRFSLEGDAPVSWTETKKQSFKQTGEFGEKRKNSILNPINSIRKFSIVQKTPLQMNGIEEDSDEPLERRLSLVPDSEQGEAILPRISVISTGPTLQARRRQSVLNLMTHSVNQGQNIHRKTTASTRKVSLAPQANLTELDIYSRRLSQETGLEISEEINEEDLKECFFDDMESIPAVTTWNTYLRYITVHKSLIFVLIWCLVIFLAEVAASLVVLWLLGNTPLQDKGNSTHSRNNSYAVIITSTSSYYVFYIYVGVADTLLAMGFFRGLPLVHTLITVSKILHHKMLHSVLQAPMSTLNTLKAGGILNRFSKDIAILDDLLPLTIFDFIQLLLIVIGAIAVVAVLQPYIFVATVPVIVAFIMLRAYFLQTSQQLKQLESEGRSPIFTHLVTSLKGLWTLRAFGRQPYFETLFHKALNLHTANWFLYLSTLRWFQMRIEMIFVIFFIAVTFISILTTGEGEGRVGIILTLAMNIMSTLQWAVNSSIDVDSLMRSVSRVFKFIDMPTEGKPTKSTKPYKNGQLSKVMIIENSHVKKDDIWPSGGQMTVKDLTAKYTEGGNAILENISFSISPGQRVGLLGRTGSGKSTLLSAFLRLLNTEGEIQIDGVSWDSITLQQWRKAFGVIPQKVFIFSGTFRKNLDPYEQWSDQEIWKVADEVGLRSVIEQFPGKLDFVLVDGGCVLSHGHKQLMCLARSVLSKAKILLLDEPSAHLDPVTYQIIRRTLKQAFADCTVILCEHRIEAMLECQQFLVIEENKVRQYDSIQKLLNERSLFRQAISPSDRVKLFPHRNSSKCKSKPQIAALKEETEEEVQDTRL
T2 sequence (P13569 with tags, fused parts or gaps DEL508-508): as above

On to `CN1CCc2c(c(C(F)(F)F)nn2-c2cccc(C(=O)N(C)c3ccc4c(c3)OCO4)c2)C1` [Compound 003, N-(1,3-Benzodioxol-5-yl)-N-methyl-3-[5-methyl-3-(trifluoromethyl)-6,7-dihydro-4H-pyrazolo[4,3-c]pyridin-1-yl]benzamide], for which the “Corrector activity (expressed as ΔTEEC values)” value on F508del-CFTR [1] is “++ (2000 µS<ΔTEEC<3000[…]S)”. The “activity on HBE cells (expressed as […]ICFTR)” value (from here on “activity on HBE cells”) at F508del-CFTR [2] is reported as “++ (2 μA<[…]ICFTR<3.0 μA)”. On mutant CFTR, the EC50 (commonly the concentration that produces a half-maximal response) is less than 1000 nM.
Regarding `CN(C(=O)c1cccc(-n2nc(C(F)(F)F)c3c2CCN(C(=O)Nc2ccccc2)C3)c1)c1ccc2c(c1)OCO2` [Compound 010, 1-[3-[1,3-Benzodioxol-5-yl(methyl)carbamoyl]phenyl]-N-phenyl-3-(trifluoromethyl)-6,7-dihydro-4H-pyrazolo[4,3-c] pyridine-5-carboxamide], the “Corrector activity (expressed as ΔTEEC values)” value at F508del-CFTR [1] was “++ (2000 µS<ΔTEEC<3000[…]S)”. Moreover, on F508del-CFTR [2], the “activity on HBE cells” value is “++ (2 μA<[…]ICFTR<3.0 μA)”. Moreover, the EC50 on mutant CFTR is less than 1000 nM.
The matching figures for `CN(C(=O)c1cccc(-n2nc(C(F)(F)F)c3c2CCN(C(=O)C(C)(C)C)C3)c1)c1ccc2c(c1)OCO2` [Compound 011, N-(1,3-Benzodioxol-5-yl)-3-[5-(2,2-dimethylpropanoyl)-3-(trifluoromethyl)-6,7-dihydro-4H-pyrazolo[4,3-c]pyridin-1-yl]-N-methyl-benzamide]: “++ (2000 µS<ΔTEEC<3000[…]S)”, “++ (2 μA<[…]ICFTR<3.0 μA)” and less than 1000 nM.
In the case of `CN(C(=O)c1cccc(-n2nc(C(F)(F)F)c3c2CCN(Cc2ccccc2)C3)c1)c1ccc2c(c1)OCO2` [Compound 012, N-(1,3-Benzodioxol-5-yl)-3-[5-benzyl-3-(trifluoromethyl)-6,7-dihydro-4H-pyrazolo[4,3-c]pyridin-1-yl]-N-methyl-benzamide], the “Corrector activity (expressed as ΔTEEC values)” value at F508del-CFTR [1] was “++ (2000 µS<ΔTEEC<3000[…]S)”. Moreover, the “activity on HBE cells” value on F508del-CFTR [2] is recorded as “+ ([…]ICFTR<2.0 µA)”. For the same molecule, the EC50 on mutant CFTR is less than 1000 nM.
For the molecule `COC(=O)c1cccc(CN2CCc3c(c(C(F)(F)F)nn3-c3cccc(C(=O)N(C)c4ccc5c(c4)OCO5)c3)C2)c1` [Compound 020, Methyl 3-[[1-[3-[1,3-benzodioxol-5-yl(methyl)carbamoyl]phenyl]-3-(trifluoromethyl)-6,7-dihydro-4H-pyrazolo[4,3-c]pyridin-5-yl]methyl]benzoate], the “Corrector activity (expressed as ΔTEEC values)” value at F508del-CFTR [1] is given as “+++ (ΔTEEC>3000 µS)”. Besides, the “activity on HBE cells” value on F508del-CFTR [2] is “++ (2 μA<[…]ICFTR<3.0 μA)”. Moreover, the EC50 on mutant CFTR was less than 1000 nM.
The matching figures for `CN(C(=O)c1cccc(-n2nc(C(F)(F)F)c3c2CCN(C2CCC2)C3)c1)c1ccc2c(c1)OCO2` [Compound 032, N-(1,3-Benzodioxol-5-yl)-3-[5-cyclobutyl-3-(trifluoromethyl)-6,7-dihydro-4H-pyrazolo[4,3-c]pyridin-1-yl]-N-methyl-benzamide]: “++ (2000 µS<ΔTEEC<3000[…]S)”, “++ (2 μA<[…]ICFTR<3.0 μA)” and less than 1000 nM.
